Patent US20240216410A1, “METHODS AND COMPOSITIONS FOR TREATING CANCER THERAPY-INDUCED NEUTROPENIC FEVER AND/OR GVHD” (BOARD OF REGENTS, THE UNIVERSITY OF TEXAS SYSTEM, priority 2021, published 2024)

Experiments:
colonic mucus layer = test: Murine GVHD model: colonic mucus layer thickness (PAS staining); assay type: in vivo, mice; conditions: day 18; vs untreated GVHD mice and syngeneic mice
Protocol: Next, assessed was the impact of meropenem treatment on the dense colonic mucus layer of mice with GVHD.
Allo-HSCT recipient mice were treated with meropenem as in FIG. 15A and with xylose from days 13 to 20 (FIG. 18F). […] Importantly, in vitro, growth of mouse and human-derived BT in carbohydrate-poor media was augmented by xylose (FIG. 23B).
Xylose administration. D-(+)-xylose (X3877, SIGMA-ALDRICH®) was dissolved in phosphate buffer pH 8.0 with meropenem or in water without meropenem and given at a concentration of 0.5% from days 13 to 20 after allo-HSCT.
Histological and immunohistochemistry analysis. […] Pathology scores were quantified by a blinded pathologist. […] Sections were imaged using an APERIO® AT2.

[1] = Murine GVHD model: colonic luminal carbohydrates by acid hydrolysis and IC-MS; assay type: in vivo; conditions: day 18; mice with GVHD
Excerpt: BT is known to be a versatile utilizer of a variety of carbohydrate sources derived from the diet, including xylose via the xylose isomerase pathway, as well as host glycans. […] Host mucin glycans are particularly low on the metabolic hierarchy and are typically targeted only after other dietary polysaccharides have been depleted (43). […] Thus, in some embodiments, levels of soluble carbohydrates in the colonic lumen may be perturbed by meropenem treatment, given that it is shown herein that meropenem depletes the abundance of commensal Clostridia, which function to metabolize dietary fibers and starches (45). Using acid hydrolysis followed by ion chromatography-mass spectrometry (IC-MS), levels of monosaccharide subunits comprising soluble luminal polysaccharides were characterized in the colon of mice.
Carbohydrates analysis by IC-MS. To determine the relative abundance of carbohydrates in mouse feces samples, extracts were prepared and analyzed by ultra-HRMS. Fecal pellets were homogenized with a […]® Tissue Homogenizer. Metabolites were extracted using 1 mL ice-cold 80/20 (v/v) methanol/water. Extracts were centrifuged at 17,000 g for 5 min at 4° C., and supernatants were transferred to clean tubes, followed by evaporation to dryness under nitrogen. Dried extracts were reconstituted in deionized water, and 5 μL was injected for analysis by IC-MS. […]

[2] = human, in vivo
Protocol: In this study, data from 295 patients with acute myeloid leukemia (AML) or myelodysplastic syndrome (MDS) who underwent allo-HSCT with tacrolimus and methotrexate as GVHD prophylaxis following conditioning therapy with fludarabine and 5 busulfan from 2011 to 2016 were retrospectively examined. The incidence of acute intestinal GVHD until day 100 after transplant was evaluated and compared were patients who received neither cefepime nor meropenem, those who received cefepime alone, those who received meropenem alone, and those who received both cefepime and meropenem during the period from days −10 to 30 relative to allo-HSCT infusion.
Retrospective study design. 295 patients with acute myeloid leukemia (AML) or myelodysplastic syndrome (MDS) underwent allogeneic hematopoietic stem cell transplantation (allo-HSCT) with fludarabine plus busulfan as conditioning therapy and tacrolimus and methotrexate as GVHD prophylaxis from 2011 and 2016 and were analyzed retrospectively. Patients were classified by antibiotic exposures, including those who received neither cefepime nor meropenem, those who received cefepime alone, those who received meropenem alone and those who received both cefepime and meropenem from day −10 to day 30 after allo-HSCT. Acute GVHD was diagnosed by clinical and/or pathological findings, and graded according to standard criteria (56).

[3] = tested on: Clostridium saudiense (MDA-JAX CS001); test: MIC of meropenem by MIC test strips; assay type: cell-based; conditions: mouse-derived
Protocol: (§1) The minimum inhibitory concentration (MIC) of meropenem against murine BT was quantified using MIC test strips (Table 4).
(§2) Culturing of bacteria. Mouse-derived BT (MDA-JAX BT001), Enterococcus faecalis (MDA-JAX EF001) and Clostridium disporicum (MDA-JAX CD001), Clostridium saudiense (MDA-JAX CS001), and Lachnospiraceae unclassified (MDA-JAX LS001) were isolated and cultured from mouse stool samples suspended in 1 ml of chilled 20% anaerobic glycerol in a Whitley anaerobic chamber (10% H2, 5% CO2 and 85% N2). Human-derived BT (ATCC 29148) was purchased from ATCC. Bacterial number was quantified using a Nexcelom Cellometer cell counter with SYTO™ BC dye and propidium iodide. For measuring MICs against meropenem, bacteria were cultured on BYE plates including 5% sterilized rumen fluid (Fisher Scientific) with MIC test strips (LIOFILCHEM™ MTS™ Meropenem [MRP] 0.016-256 μg/mL, THERMO FISHER […]™)). Bacterial growth experiments were in liquid media were performed in a novel bacterial media, BYEM10, composed of a hybrid of BHI and M10 supplemented with yeast extract (Table 5).

[4] = tested on: Lachnospiraceae unclassified (MDA-JAX LS001); test: MIC of meropenem by MIC test strips; assay type: cell-based; conditions: mouse-derived
Protocol: as §1, §2

[5] = tested on: Clostridium disporicum (MDA-JAX CD001); test: MIC of meropenem by MIC test strips; assay type: cell-based; conditions: mouse-derived
Protocol: as §1, §2

C[C@@H](O)[C@H]1C(=O)N2C(C(=O)O)=C(S[C@@H]3CN[C@H](C(=O)N(C)C)C3)[C@H](C)[C@H]12 [meropenem]
survival after allo-HSCT (meropenem in drinking water days 3 to 15 vs control allo-HSCT mice): significantly worsened survival | GVHD histological scores in the colon (mouse, in vivo): significantly higher | GVHD histology in the small intestine and liver (mouse, in vivo): not substantially different | epithelial damage in the colon (H&E) (mouse, in vivo): severe epithelial damage in the colon | colonic mucus layer thickness (colonic mucus layer): significantly thinned colonic mucus layer | concentrations of soluble luminal polysaccharide monosaccharide subunits [1]: significantly lower concentrations of arabinose- and xylose-derived polysaccharides | Acute GVHD Grade 0, number of patients [2]: 13 | Acute GVHD Grade 0, percentage of patients [2]: (41%) | Acute GVHD Grade I, number of patients [2]: 5 | Acute GVHD Grade I, percentage of patients [2]: (16%) | Acute GVHD Grade II, number of patients [2]: 10 | Acute GVHD Grade II, percentage of patients [2]: (31%) | incidence of acute intestinal GVHD [2]: significantly higher | Acute GVHD Grade III-IV, number of patients ([2]; iv): 4 | Acute GVHD Grade III-IV, percentage of patients ([2]; iv): (13%) | MIC [3]: 0.38 µg/mL | MIC [4]: 0.38 µg/mL | MIC [5]: 0.094 µg/mL
